Assays:
blackgrass [1] = assay: Test C postemergence; format: in vivo, Alopecurus myosuroides; conditions: 10 days, 0 to 100 scale (0 no effect, 100 complete control)
In short: (§1)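 Pre: seeds in loam/sand, directed soil spray. Post: 1–2 leaf plants, 2–10 cm. Cmpd in non-phytotoxic solvent + surfactant. Greenhouse 10 d; visual rating vs untreated, 0 = none, 100 = complete control.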

soybean [2] = assay: Test C postemergence; format: in vivo, Glycine max; conditions: 10 days, 0 to 100 scale (0 no effect, 100 complete control)
In short: as §1

kochia [3] = assay: Test C preemergence; format: in vivo, Bassia scoparia; conditions: preemergence, 0 to 100 scale (0 no effect, 100 complete control)
In short: as §1

ragweed [4] = assay: Test C preemergence; format: in vivo, Ambrosia artemisiifolia; conditions: preemergence, 0 to 100 scale (0 no effect, 100 complete control)
In short: as §1

wheat [5] = assay: Test C postemergence; format: in vivo, Triticum aestivum; conditions: 10 days, 0 to 100 scale (0 no effect, 100 complete control)
In short: as §1

oat, wild [6] = assay: Test C preemergence; format: in vivo, Avena fatua; conditions: preemergence, 0 to 100 scale (0 no effect, 100 complete control)
In short: as §1

wheat [7] = assay: Test C preemergence; format: in vivo, Triticum aestivum; conditions: preemergence, 0 to 100 scale (0 no effect, 100 complete control)
In short: as §1

blackgrass [8] = assay: Test C preemergence; format: in vivo, Alopecurus myosuroides; conditions: preemergence, 0 to 100 scale (0 no effect, 100 complete control)
In short: as §1

barnyardgrass [9] = assay: Test D flooded paddy test; format: in vivo, Echinochloa crus-galli; conditions: 250 g ai/ha, applied to paddy water, visual rating after 13 to 14 days, scale 0 to 100 (0 no effect, 100 complete control)
In short: (§2)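 Plants grown to the 2-leaf stage; pots flooded to 3 cm above soil at treatment and held at that depth throughout. Test compounds applied directly to the paddy water. After 13 to 14 days in a greenhouse, response was rated visually versus controls on a 0 (no effect) to 100 (complete control) scale.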

ducksalad = assay: Test D flooded paddy test; format: in vivo, Heteranthera limosa; conditions: 250 g ai/ha, applied to paddy water, visual rating after 13 to 14 days, scale 0 to 100 (0 no effect, 100 complete control)
In short: as §2

corn [10] = assay: Test C preemergence; format: in vivo, Zea mays; conditions: preemergence, 0 to 100 scale (0 no effect, 100 complete control)
In short: as §1

barnyardgrass [11] = assay: Test C preemergence; format: in vivo, Echinochloa crusgalli; conditions: preemergence, 0 to 100 scale (0 no effect, 100 complete control)
In short: as §1

galium = assay: Test C postemergence; format: in vivo, Galium aparine; conditions: 10 days, 0 to 100 scale (0 no effect, 100 complete control)
In short: as §1

sedge, umbrella = assay: Test D flooded paddy test; format: in vivo, Cyperus difformis; conditions: 250 g ai/ha, applied to paddy water, visual rating after 13 to 14 days, scale 0 to 100 (0 no effect, 100 complete control)
In short: as §2

pigweed, palmer [12] = assay: Test C postemergence; format: in vivo, Amaranthus palmeri; conditions: 10 days, 0 to 100 scale (0 no effect, 100 complete control)
In short: as §1

corn [13] = assay: Test C postemergence; format: in vivo, Zea mays; conditions: 10 days, 0 to 100 scale (0 no effect, 100 complete control)
In short: as §1

pigweed, palmer [14] = assay: Test C preemergence; format: in vivo, Amaranthus palmeri; conditions: preemergence, 0 to 100 scale (0 no effect, 100 complete control)
In short: as §1

soybean [15] = assay: Test C preemergence; format: in vivo, Glycine max; conditions: preemergence, 0 to 100 scale (0 no effect, 100 complete control)
In short: as §1

rice = assay: Test D flooded paddy test; format: in vivo, Oryza sativa; conditions: 250 g ai/ha, applied to paddy water, visual rating after 13 to 14 days, scale 0 to 100 (0 no effect, 100 complete control)
In short: as §2

barnyardgrass [16] = assay: Test C postemergence; format: in vivo, Echinochloa crusgalli; conditions: 10 days, 0 to 100 scale (0 no effect, 100 complete control)
In short: as §1

horseweed = assay: Test C postemergence; format: in vivo, Erigeron canadensis; conditions: 10 days, 0 to 100 scale (0 no effect, 100 complete control)
In short: as §1

ragweed [17] = assay: Test C postemergence; format: in vivo, Ambrosia artemisiifolia; conditions: 10 days, 0 to 100 scale (0 no effect, 100 complete control)
In short: as §1

ryegrass, Italian [18] = assay: Test C preemergence; format: in vivo, Lolium multiflorum; conditions: preemergence, 0 to 100 scale (0 no effect, 100 complete control)
In short: as §1

ryegrass, Italian [19] = assay: Test C postemergence; format: in vivo, Lolium multiflorum; conditions: 10 days, 0 to 100 scale (0 no effect, 100 complete control)
In short: as §1

oat, wild [20] = assay: Test C postemergence; format: in vivo, Avena fatua; conditions: 10 days, 0 to 100 scale (0 no effect, 100 complete control)
In short: as §1

foxtail, giant [21] = assay: Test C postemergence; format: in vivo, Setaria faberi; conditions: 10 days, 0 to 100 scale (0 no effect, 100 complete control)
In short: as §1

foxtail, giant [22] = assay: Test C preemergence; format: in vivo, Setaria faberi; conditions: preemergence, 0 to 100 scale (0 no effect, 100 complete control)
In short: as §1

kochia [23] = assay: Test C postemergence; format: in vivo, Bassia scoparia; conditions: 10 days, 0 to 100 scale (0 no effect, 100 complete control)
In short: as §1

CC(C)c1cc(C(=O)N2C[C@H](C)Oc3c(Cl)cccc32)cc(-n2cncn2)c1 [Compound 316]
50: Plant response rating, Blackgrass (blackgrass [1]; Postemergence, 125 g ai/ha) | Blackgrass plant response rating (blackgrass [8]; Test C, 125 g ai/ha) | Soybean plant response rating (soybean [15]; 500 g ai/ha) | Plant response rating, Barnyardgrass (barnyardgrass [16]; 500 g ai/ha, postemergence)
60: Plant response rating, Pigweed, Palmer (pigweed, palmer [12]; 500 g ai/ha, postemergence) | Pigweed, Palmer plant response rating (pigweed, palmer [14]; Test C, 125 g ai/ha)
10: Plant response rating, Wheat (wheat [5]; Postemergence, 125 g ai/ha) | Corn plant response rating (corn [10]; Test C, 125 g ai/ha) | Plant response rating, Barnyardgrass (barnyardgrass [16]; Postemergence, 125 g ai/ha) | Plant response rating, Foxtail, Giant (foxtail, giant [21]; Postemergence, 125 g ai/ha)
90: Blackgrass plant response rating (blackgrass [8]; 500 g ai/ha) | Barnyardgrass plant response rating (barnyardgrass [11]; 500 g ai/ha) | Plant response rating, Galium (galium; 500 g ai/ha, postemergence) | Pigweed, Palmer plant response rating (pigweed, palmer [14]; 500 g ai/ha) | Ryegrass, Italian plant response rating (ryegrass, Italian [18]; 500 g ai/ha) | Plant response rating, Foxtail, Giant (foxtail, giant [21]; 500 g ai/ha, postemergence)
30: Barnyardgrass plant response rating (barnyardgrass [11]; Test C, 125 g ai/ha) | Plant response rating, Pigweed, Palmer (pigweed, palmer [12]; Postemergence, 125 g ai/ha) | Plant response rating, Ryegrass, Italian (ryegrass, Italian [19]; Postemergence, 125 g ai/ha) | Plant response rating, Kochia (kochia [23]; Postemergence, 125 g ai/ha)
20: Plant response rating, Wheat (wheat [5]; 500 g ai/ha, postemergence) | Oat, Wild plant response rating (oat, wild [6]; Test C, 125 g ai/ha) | Wheat plant response rating (wheat [7]; 500 g ai/ha) | Plant response rating, Corn (corn [13]; Postemergence, 125 g ai/ha) | Plant response rating, Oat, Wild (oat, wild [20]; 500 g ai/ha, postemergence)
40: Oat, Wild plant response rating (oat, wild [6]; 500 g ai/ha) | Corn plant response rating (corn [10]; 500 g ai/ha) | Plant response rating, Galium (galium; Postemergence, 125 g ai/ha)
70: Plant response rating, Blackgrass (blackgrass [1]; 500 g ai/ha, postemergence) | Plant response rating, Corn (corn [13]; 500 g ai/ha, postemergence) | Ryegrass, Italian plant response rating (ryegrass, Italian [18]; Test C, 125 g ai/ha)
0: Kochia plant response rating (kochia [3]; 500 g ai/ha) | Kochia plant response rating (kochia [3]; Test C, 125 g ai/ha) | Ragweed plant response rating (ragweed [4]; 500 g ai/ha) | Ragweed plant response rating (ragweed [4]; Test C, 125 g ai/ha) | Wheat plant response rating (wheat [7]; Test C, 125 g ai/ha) | Plant response rating, Barnyardgrass (Flood) (barnyardgrass [9]) | Plant response rating, Ducksalad (Flood) (ducksalad) | Plant response rating, Sedge, Umbrella (Flood) (sedge, umbrella) | Soybean plant response rating (soybean [15]; Test C, 125 g ai/ha) | Plant response rating, Rice (Flood) (rice) | Plant response rating, Horseweed (horseweed; 500 g ai/ha, postemergence) | Plant response rating, Horseweed (horseweed; Postemergence, 125 g ai/ha) | Plant response rating, Ragweed (ragweed [17]; 500 g ai/ha, postemergence) | Plant response rating, Ragweed (ragweed [17]; Postemergence, 125 g ai/ha) | Plant response rating, Oat, Wild (oat, wild [20]; Postemergence, 125 g ai/ha)
100: Plant response rating, Soybean (soybean [2]; 500 g ai/ha, postemergence) | Plant response rating, Soybean (soybean [2]; Postemergence, 125 g ai/ha) | Foxtail, Giant plant response rating (foxtail, giant [22]; 500 g ai/ha)
80: Plant response rating, Ryegrass, Italian (ryegrass, Italian [19]; 500 g ai/ha, postemergence) | Foxtail, Giant plant response rating (foxtail, giant [22]; Test C, 125 g ai/ha) | Plant response rating, Kochia (kochia [23]; 500 g ai/ha, postemergence)

From patent US20260262643A1, “HERBICIDAL BENZOXAZINES” (FMC CORPORATION, priority 2022, published 2026)
